Measurements taken from patent US20100267803A1, “Regulators Of Fat Metabolism As Anti-Cancer Targets” (The Research Foundation of State University Of New York, priority 2008, published 2010).

Columns and labels:
Format in all cases: cell-based, human
BT474 cells [1] = assay: Neutral fat stores by BODIPY 493/503 staining; settings: first 48 h after transfection
Protocol: (§1) FIG. 4 NR1D1 and PBP coordinate fatty acid metabolism in breast cancer cells. (a) BT474, MDA-MB-361, MCF-7 and HMEC cells were stained with Oil-Red O lipid and hematoxylin nuclear stains. (b) Fat stores were quantified by BODIPY 493/503 lipid probe staining (Error bars are s.d from 3 individual experiments). (c) FASN, ACLY, ACACA and FADS2 mRNA levels of BT474 cells treated with luciferase (control), PBP or NR1D1 shRNAs, or with vehicle and 20 μM of GW9662 for 48 h, analyzed by qRT-PCRs. (Error bars are s.d from 3 experiments; ***P<0.001, **P=0.005) (d) BT474 cells were transfected with FASN, ACLY and ACACA shRNAs and co-transfected with GFP. Transfected cells were counted at 24 h and 72 h and the 72h-to-24 h ratio for each shRNA was calculated and expressed as % of the control shRNA (luciferase). (Error bars are s.d from 3 individual experiments; **P<0.01, ***P<0.002). (e) BODIPY images and (f) quantification of BT474 cells transfected with luciferase (control), PBP or NR1D1 shRNAs and co-transfected with DsRed (Error bars are s.d from 3 individual experiments; ***P<0.03). Arrows indicate transfected cells.
Metabolic assays. […] Transfected cells were monitored by co-transfecting with the pDsRed-Monomer-N1 vector (Clontech). Cells were imaged and analyzed using the In Cell Analyzer 1000—In Cell Investigator 3.4 system (GE Biosciences), as described above. […]

ACLY mRNA = assay: qRT-PCR of ACLY mRNA in BT474 cells; settings: shRNA or 20 μM GW9662 for 48 h
Protocol: as §1
(§2) Cell viability—apoptosis assays. […] At least 30 fields were imaged per single experiment. […] Immunoblotting. […] PCR reaction was run using standard conditions.

BT474 cells [2] = assay: RNAi screen, alamarBlue cell proliferation and viability; settings: shRNA transfection
Excerpt: (§3) FIG. 1 An RNAi screen targeting genes overexpressed in breast cancer. (a) Three transfection mixes were produced for each shRNA and each was transfected into triplicate wells of BT474 cells. AlamarBlue was used to monitor cell proliferation and viability. […] (b) The genetic and functional linkage of NR1D1 and PBP. Mb refers to map position on chromosome 17. (c) ERBB2-overexpressing (OEX) and ERBB2 non-overexpressing (non-OEX) breast cancer cell lines as well as the (non-OEX) HMEC and HEK 293 cells were transfected and assayed as in (a). […] Genes clustered with ERBB2 are boxed.
Amplification of the ERBB2 oncogene occurs in 10-34% of breast cancer cases and is correlated with aggressive disease and poor clinical outcome^1. […] However, its success has been tempered by response rates of only 30% when used as a single agent therapy in patients with metastatic ERBB2-positive breast cancer^2. A large number of genes co-overexpressed with ERBB2 in this tumour type have been proposed to contribute to the aggressiveness of this cancer^3-5. Applicants have performed an unbiased functional RNAi screen^8-10 to determine if any of these co-overexpressed genes are essential for ERBB2 positive breast cancer cell survival.
RNAi screen, transfections and constructs. The flag-RevErba (flag-NR1D1) overexpression construct was a generous gift of M. Lazar. The LSXN-neu* (ERBB2) overexpression construct was a generous gift of L. Petti. shRNA constructs were expressed from the pSHAG-MAGIC 2 (pSM2) vector and derived from a genome-wide shRNA library^31. ShRNAs targeting the firefly (Photinus pyralis) luciferase gene were used as controls. Transfection efficiency was monitored by co-transfection with a modified MSCV-Puro vector expressing green fluorescent protein (GFP). The alamarBlue (Biosource) assay was performed 96 h post-transfection, since BT474 cells have a population doubling time of ˜100 hours. For mature sequences of the shRNAs that produced the best results on decreasing BT474 viability, Table S1; a complete list is available in the RNAi Codex web page (http://codex.cshl.edu). The shRNAs targeting the luciferase gene were constructed as described in the RNAi Codex web page (http://codex.cshl.edu/scripts/newmain.pl) using a modified pSM2 vector containing the PheS gene (pSM2-PheS) in the cloning site, as a negative selection marker. The empty vector control (pSM2e) was constructed by XhoI and EcoRI (New England Biolabs) digestion of pSM2-PheS, followed by nucleotide filling of protruding ends by Klenow polymerase and blunt-end ligation. Transfections were performed using FuGENE 6 and HD FuGENE (Roche) according to the manufacturer's protocol. High-throughput transfections were performed using an EpMotion 5070 fluidics station (Eppendorf). For quantification of alamarBlue we used a BioTek HT Synergy plate reader. AlamarBlue values from the RNAi screens on other cell types were also calculated as above and subjected to hierarchical cluster analysis using Cluster 2.11 (M. Eisen Lab).

[3] = system: nonoverexpressing breast cancer cell lines (MCF-7, MDA-MB-453, MDA-MB-468), HMECs, HEK 293FT; assay: alamarBlue proliferation of shRNA-transfected ERBB2 non-overexpressing cell lines; settings: MCF-7, MDA-MB-453, MDA-MB-468, HMEC, shRNA transfection
Excerpt: as §3
(§4) To assess the specificity of effect of each shRNA on cell proliferation, those causing the greatest decrease in BT474 cell proliferation were transfected in a variety of cell lines, including ERBB2 overexpressing (BT474, MDA-MB-361) and nonoverexpressing breast cancer cell lines (MCF-7, MDA-MB-453, MDA-MB-468), normal human mammary epithelial cells (HMECs) and a non-breast tumorigenic cell line (HEK 293FT). […] PBP, NRID1 and PFN2 shRNAs clustered with ERBB2.
(§5) RNAi screen, transfections and constructs. The flag-RevErba (flag-NR1D1) overexpression construct was a generous gift of M. Lazar. The LSXN-neu* (ERBB2) overexpression construct was a generous gift of L. Petti. shRNA constructs were expressed from the pSHAG-MAGIC 2 (pSM2) vector and derived from a genome-wide shRNA library^31. ShRNAs targeting the firefly (Photinus pyralis) luciferase gene were used as controls. Transfection efficiency was monitored by co-transfection with a modified MSCV-Puro vector expressing green fluorescent protein (GFP). The alamarBlue (Biosource) assay was performed 96 h post-transfection, since BT474 cells have a population doubling time of ˜100 hours. […] For quantification of alamarBlue we used a BioTek HT Synergy plate reader. AlamarBlue values from the RNAi screens on other cell types were also calculated as above and subjected to hierarchical cluster analysis using Cluster 2.11 (M. Eisen Lab).

[4] = system: ERBB2 overexpressing (BT474, MDA-MB-361) breast cancer cell lines; assay: alamarBlue proliferation of shRNA-transfected ERBB2-overexpressing cell lines; settings: shRNA transfection
Excerpt: as §3, §4, §5

FADS2 mRNA = assay: qRT-PCR of FADS2 mRNA in BT474 cells; settings: shRNA or 20 μM GW9662 for 48 h
Protocol: as §1, §2

Q: How did the “decrease in fat stores” value (BT474 cells [1]) turn out when “NR1D1 shRNA: shRNA, mature sequence GGCATGGTGTTACTGTGTA (shRNA)” was run?
A: 47%

Q: What about the ACLY transcript level (ACLY mRNA) of the same substance?
A: reduced

Q: And the “effect on cell proliferation” value (BT474 cells [2])?
A: most dramatic effect on cell proliferation

Q: And the “effect on other cell lines or HMECs” value [3]?
A: without effect on other cell lines or HMECs

Q: What about the “viability of ERBB2-positive cells” value [4] of the same substance?
A: specifically decreased the viability of ERBB2-positive cells

Q: And the FADS2 transcript levels (FADS2 mRNA)?
A: downregulated

Q: How did the “decrease in fat stores” value (BT474 cells [1]) turn out when “PBP shRNA: shRNA, mature sequence CCGAGTTCCTCTTATCCTA (shRNA)” was run?
A: 30%

Q: And the ACLY transcript level (ACLY mRNA)?
A: reduced

Q: And the “effect on cell proliferation” value (BT474 cells [2])?
A: most dramatic effect on cell proliferation

Q: What about the “effect on other cell lines or HMECs” value [3] of the same substance?
A: without effect on other cell lines or HMECs

Q: And the “viability of ERBB2-positive cells” value [4]?
A: specifically decreased the viability of ERBB2-positive cells

Q: And the FADS2 transcript levels (FADS2 mRNA)?
A: downregulated
